Laboratory results from US20250049819A1, “METHODS FOR TREATING AND PREVENTING C. DIFFICILE INFECTION” (Paratek Pharmaceuticals, Inc., priority 2016, published 2025).
In brackets after ≈: the same amount, converted by molar mass. Entries after “also recorded” stand apart in the source; their conditions may differ. Like-named read-outs stand apart in the source and are kept apart here.

Key:
[1] = tested on: C. difficile strains (N = 27); assay: MIC by broth microdilution against C. difficile clinical isolates; type: cell-based; parameters: Broth Microdilution Range (Minimum Inhibitory Concentration): unit not given here; settings: 27 isolates; for MIC50 / MIC90: Clostridioides difficile
Procedure: (§1) The activity of omadacycline was tested in vitro against 27 clinical isolates of C. difficile. […] The experiments were carried out using broth and agar microdilution methods according to Clinical and Laboratory Standards Institute (CLSI) guidelines. […] Each test was run in duplicate.

[2] = tested on: C. difficile strain ATCC 43596; assay: MIC90 against the infection model strain; type: cell-based
[3] = tested on: C. difficile strains (N = 27); assay: MIC by agar dilution against C. difficile clinical isolates; type: cell-based; settings: 27 isolates
Procedure: as §1

[4] = tested on: C. difficile PCR ribotype 027 strain 210; assay: In vitro human gut model, C. difficile germination, proliferation and toxin production (Example 4); type: cell-based
Procedure: (§2) The gut model was inoculated with pooled fecal slurry (5 volunteers ≥60 years of age with no history of antibiotic therapy in the previous 3 months) and left for 2 weeks to allow the bacterial populations to achieve steady state. A single inoculum (˜10^7 cfu/mL) of C. difficile spores (PCR ribotype 027 strain 210) was added into vessel 1 of the gut model on day 14. One week later, on day 21, a second aliquot of C. difficile spores was added, and antibiotic instillation commenced. Model A (LHS) was exposed to moxifloxacin (43 mg/L, once daily, for 7 days) and Model B (RHS) was exposed to omadacycline (430 mg/L, once daily, for 7 days) commenced on day 21.
(§3) Bacterial populations in the gut model were monitored using selective agars to count viable bacterial colonies. Populations were monitored every other day for the first 2 weeks until the steady state was reached, and daily thereafter. C. difficile populations were monitored in all three vessels, and all other bacterial groups (total obligate anaerobes, total facultative anaerobes, lactose fermenting Enterobacteriaceae, Enterococci, total Clostridia, Lactobacilli, Bifidobacteria and B. fragilis group) were monitored in vessels 2 and 3 only. Vessel 3, which represents the distal colon, is of most physiological relevance in terms of propensity to induce CDI. C. difficile total viable counts and spores counts were monitored using viable counting and a differential alcohol shock viable count on selective agars. From day 14 onwards C. difficile cytotoxin was measured using a quantitative VERO cell cytotoxicity assay. Samples of 1 mL each were centrifuged at 16,000×g for 15 minutes, and the supernatants were removed. Six 1:10 serial dilutions (to 10^−6) of culture supernatants from the gut model were prepared. Twenty microliters of the appropriate dilution was added to VERO cell monolayers and a further 20 μL of C. sordellii antitoxin (diluted 1:10 in sterile distilled water) was placed in the corresponding antitoxin row. Monolayers were examined after 24 and 48 hours of incubation in 5% CO2, with a positive result indicated by the presence of cell rounding with concurrent neutralization of the effect by C. sordellii antitoxin. Cytotoxin titers (relative units, RU) were an arbitrary log10 scale, and the cytotoxin titer is reported in the highest dilution with >70% cell rounding, i.e. 10^0=1 RU, 10^−1=2 RU, 10^−2=3 RU. Samples were taken daily from day 21 onwards to determine antimicrobial concentrations in the gut model vessels by a bioassay. Concentrations of moxifloxacin were determined using Isosensitest agar with Escherichia coli as the indicator organism. Concentrations of omadacyline were determined using Wilkins Chalgren agar with Kocuria rhizophila as the indicator organism.

[5] = tested on: gut microflora populations; assay: In vitro human gut model, gut microflora populations (Example 4); type: cell-based
Procedure: as §2, §3

[6] = tested on: C. difficile and gut microbiota; settings: published gut model studies; cited from earlier work
[7] = tested on: C. difficile strain ATCC 43596; assay: Hamster model of C. difficile-associated diarrhea, survival; type: in vivo
[8] = Wilkins-Chalgren broth, 48 hours anaerobic
[9] = Clostridioides difficile, ATCC43596, replicate plate A, read-out: MIC90 Plate A
[10] = Clostridioides difficile, ATCC43596, replicate plate B, read-out: MIC90 Plate B
[11] = Wilkins-Chalgren broth, 48 hours anaerobic, read-out: Broth Microdilution MIC90
[12] = Clostridioides difficile, ATCC43596, read-out: MIC90
[13] = vessel 1, 43 mg/L once daily for 7 days
[14] = vessel 2 and vessel 3, 43 mg/L once daily for 7 days
[15] = vessels 2 and 3, once daily for 7 days
[16] = oral 50 mg/kg/day for 5 days, N=10

CO/N=C(\C(=O)N[C@@H]1C(=O)N2C(C(=O)O)=C(COC(C)=O)CS[C@H]12)c1csc(N)n1 [Cefotaxime]
MIC50 [1, 8]: 64000 µg/mL (≈ 141000 µM)

CCC[C@@H]1C[C@@H](C(=O)N[C@@H]([C@H]2O[C@H](SC)[C@H](O)[C@@H](O)[C@H]2O)[C@H](C)Cl)N(C)C1 [Clindamycin]
MIC90 [2]: no activity
MIC90 [2, 9]: > 32 µg/mL
MIC90 [2, 10]: > 32 µg/mL
MIC50 [1, 8]: 4000 µg/mL (≈ 9410 µM)
MIC90 [1, 11]: > 16000 µg/mL

C[C@H]1c2cccc(O)c2C(=O)C2=C(O)[C@]3(O)C(=O)C(C(N)=O)=C(O)[C@@H](N(C)C)[C@@H]3[C@@H](O)[C@@H]21 [Doxycycline]
MIC90 ([3]; Clostridioides difficile): 1 µg/mL (≈ 2.25 µM)
MIC90 ([1]; read-out: MIC90 by broth dilution): 0.5 µg/mL (≈ 1.13 µM)
MIC50 [1, 8]: 30 µg/mL (≈ 67.5 µM)
MIC90 [1, 11]: 500 µg/mL (≈ 1130 µM)

C[C@@H](O)[C@H]1C(=O)N2C(C(=O)O)=C(SCCN=CN)C[C@H]12 [Imipenem]
MIC50 [1, 8]: 4000 µg/mL (≈ 13400 µM)
MIC90 [1, 11]: 8000 µg/mL (≈ 26700 µM)

Cc1ncc([N+](=O)[O-])n1CCO [Metronidazole]
Agar Microdilution Range (Minimum Inhibitory Concentration) ([3]; agar dilution): 0.06 to 0.5 mg/mL
MIC90 [2, 12]: 0.06 µg/mL (≈ 0.351 µM)
MIC90 [2, 9]: 0.06 µg/mL (≈ 0.351 µM)
MIC90 [2, 10]: 0.06 µg/mL (≈ 0.351 µM)
MIC50 [1, 8]: 120 µg/mL (≈ 701 µM)
MIC90 [1, 11]: 500 µg/mL (≈ 2920 µM)

COc1c(N2C[C@@H]3CCCN[C@@H]3C2)c(F)cc2c(=O)c(C(=O)O)cn(C3CC3)c12 [Moxifloxacin]
C. difficile toxin detection (VERO cell cytotoxicity assay) ([4]; all vessels): toxin detected in all three vessels
day by which toxin was undetectable in all vessels ([4]; all vessels): ≤ 42 days
signs of simulated CDI ([4]; once daily for 7 days, omadacycline 430 mg/L, moxifloxacin 43 mg/L): induced simulated CDI
peak C. difficile cytotoxin titer, vessel 1 [4, 13]: 2 relative units
peak C. difficile total viable counts, vessel 1 [4, 13]: ~4.5 log10 cfu/mL
peak C. difficile cytotoxin titer, vessel 2 and vessel 3 [4, 14]: 3 relative units
peak C. difficile total viable counts, vessel 2 and vessel 3 [4, 14]: ~6 log10 cfu/mL
time for all populations to return to pre-antibiotic levels following end of antibiotic exposure ([5]; all populations): ~1 week
decline in B. fragilis group populations, vessel 2 ([5]; vessel 2, 43 mg/L once daily for 7 days): ~8 log10 cfu/mL
decline in B. fragilis group populations, vessel 3 ([5]; vessel 3, 43 mg/L once daily for 7 days): ~4 log10 cfu/mL
decline in Enterococcus spp. / Enterococci populations [5, 15]: ~4 log10 cfu/mL
decline in Lactobacilli [5, 15]: ~3 log10 cfu/mL

CN(C)c1cc(NC(=O)CNC(C)(C)C)c(O)c2c1C[C@H]1C[C@H]3[C@H](N(C)C)C(O)=C(C(N)=O)C(=O)[C@@]3(O)C(O)=C1C2=O [Tigecycline]
induction of simulated CDI (C. difficile germination and toxin production) in the gut model [6]: do not promote C. difficile germination and toxin production; also recorded: have not induced simulated CDI in the gut model
MIC90 ([2]; Clostridioides difficile, ATCC43596): 0.06 µg/mL (≈ 0.102 µM)
MIC90 ([2]; Clostridioides difficile, ATCC43596, read-out: MIC90 Plate A): 0.06 µg/mL (≈ 0.102 µM)
MIC90 ([2]; Clostridioides difficile, ATCC43596, read-out: MIC90 Plate B): 0.06 µg/mL (≈ 0.102 µM)

CN[C@H](CC(C)C)C(=O)N[C@H]1C(=O)N[C@@H](CC(N)=O)C(=O)N[C@H]2C(=O)N[C@H]3C(=O)N[C@H](C(=O)N[C@H](C(=O)O)c4cc(O)cc(O)c4-c4cc3ccc4O)[C@H](O)c3ccc(c(Cl)c3)Oc3cc2cc(c3O[C@@H]2O[C@H](CO)[C@@H](O)[C@H](O)[C@H]2O[C@H]2C[C@](C)(N)[C@H](O)[C@H](C)O2)Oc2ccc(cc2Cl)[C@H]1O [Vancomycin]
Median Survival ([7]; hamster, in vivo): 2 days
percent survival at day 2 post infection ([7]; hamster, in vivo): 40%
percent survival by day 11 [7, 16]: 30%
survival by day 14 [7, 16]: all animals succumbed to the infection
MIC90 [2, 12]: 0.06 µg/mL (≈ 0.0414 µM)
MIC90 [2, 9]: 0.06 µg/mL (≈ 0.0414 µM)
MIC90 [2, 10]: 0.06 µg/mL (≈ 0.0414 µM)

amoxicillin clavulanate
Agar Microdilution MIC50 ([3]; agar dilution): 50 µg/mL
Agar Microdilution MIC90 ([3]; agar dilution): 1000 µg/mL
Agar Microdilution Range (Minimum Inhibitory Concentration) ([3]; agar dilution): 0.25-1
Broth Microdilution MIC50 [1, 8]: 250 µg/mL
Broth Microdilution MIC90 [1, 8]: 500 µg/mL
Broth Microdilution Range (Minimum Inhibitory Concentration) [1, 8]: 0.12-0.5

piperacillin-tazobactam
induction of simulated CDI (C. difficile germination and toxin production) in the gut model [6]: do not promote C. difficile germination and toxin production; also recorded: have not induced simulated CDI in the gut model
